Assays:
[1] = Storage stability of L-glufosinate quinine tetrahydrate salt under standard conditions, analysed by HPLC; type: physicochemical
Procedure: HPLC method: • A) Column—Zorbax SB-C8 (250×4.6 mm i.d., 5 micron) • B) Mobile Phase—0.1% OPA: Acetonitrile (v/v) 40:60 • C) Flow—1.0 ml/min. • D) UV-Wavelength—230 nm • E) Injection volume—5 μl • F) Column temperature 40 °C • G) Run time—10 min
L-glufosinate quinine tetrahydrate salt obtained in example 1 was stored under standard conditions (i.e. room temperature, normal pressure, air atmosphere) for 431 days.

[2] = versus other L-glufosinate quinine hydrates (dihydrate, hexahydrate, dodecahydrate)

SMILES: C=C[C@H]1CN2CC[C@H]1C[C@H]2[C@H](O)c1ccnc2ccc(OC)cc12.CP(=O)(O)CC[C@H](N)C(=O)O.O.O.O.O [L-glufosinate quinine tetrahydrate salt]
- Duration of desirable stability on storage ([1]; ambient conditions and air atmosphere): more than 430 days
- Moisture content after storage ([1]; stored 431 days at room temperature, normal pressure, air atmosphere, initial value 12.04% (Example 1)): 12.39%
- Loss on drying after storage ([1]; stored 431 days at room temperature, normal pressure, air atmosphere, initial value 12.32% (Example 1)): 12.27%
- L-glufosinate acid content (by HPLC) after storage ([1]; stored 431 days at room temperature, normal pressure, air atmosphere, initial value 32.70% (Example 1)): 33.13%
- Quinine content (by HPLC) after storage ([1]; stored 431 days at room temperature, normal pressure, air atmosphere, initial value 54.34% (Example 1)): 53.14%
- Storage stability, thermal stability and hygroscopicity compared to other hydrates [2]: improved storage stability, thermal stability and non-hygroscopicity as compared to other hydrates
